The source of these data is patent US10207003B2, “Liquid pentablock co-polymer formulations for sustained delivery of therapeutics” (i-novion, Inc., priority 2016, dated 2019).

The nature of data set [1]: Visual clarity of PTSsol formulations on storage. It counts as physicochemical. As to conditions: for Time formulation remained clear and stable: PTSsol, stored at room temperature or refrigerated at 4° C., 1% cyclosporine, up to 2.5% brinzolamide; for Time formulation remained visibly clear without drug precipitating out: stored refrigerated, exemplary PTSsol, 1% and 2.5% brinzolamide, 1% cyclosporine A, 0.07% and 0.1% difluprednate. As for the experimental part: (§1) Hydrophobic active agents that are difficult to formulate in aqueous compositions are typically formulated as emulsions or suspensions. […] Similarly, PTSsol for 0.5% celecoxib was prepared in 10% PTS121GH in PBS buffer at pH 7.4. […] Referring to FIGS. 2 and 3 the stability of 2.5% brinzolamide in 25% 1-0 GH polymer dispersion in PBS at pH 7.4 was analyzed over 8 weeks, using HPLC.
In this example, an artificial tear composition using PTSsol polymers was generated. PTS solutions are clear, bioadhesive, biocompatible, and biodegradable polymers ideal for sensitive medical applications, such as preparing artificial tears for relieving eye discomfort caused by dry eye. […] Additional excipients can be added to the formulation as desired.

Data set [2] can be described thus: Dissolving hydrophobic active agents in PTSsol as clear aqueous liquids. The format is physicochemical. As for the experimental part:
as §1

`CCN[C@H]1CN(CCCOC)S(=O)(=O)c2sc(S(N)(=O)=O)cc21` [brinzolamide]: in data set [1], the “Time formulation remained clear and stable” value was determined as 8 weeks; the “Time formulation remained visibly clear without drug precipitating out” value is 28 days. Besides, the “Time formulation remained clear and stable” value in data set [1] (listed as BRZ) is listed as at least 8 weeks. Moreover, the “Drug concentration dissolved as clear liquid” value in data set [2] (in 10% PTS1-0GH PTSsol) is “up to 2.5%”. Also, in data set [2] (in 10% of 121GH polymer), the “Drug concentration dissolved as very clear liquid” value is reported as 2.5%.
In the case of `CCCC(=O)O[C@]1(C(=O)COC(C)=O)CC[C@H]2[C@@H]3C[C@H](F)C4=CC(=O)C=C[C@]4(C)[C@@]3(F)[C@@H](O)C[C@@]21C` [difluprednate], the “Time formulation remained visibly clear without drug precipitating out” value in data set [1] came to 8 days. Further, the “Dissolution in hydrophilic polymer” value in data set [2] (directly in PTS121 GH polymer) was “does not readily dissolve”. In data set [2] (first dissolved in gelling polymer 113 GH or 122 GH, then mixed with PTS121 GH), the “Drug concentration of stable aqueous formulation” value was at most 0.1%.
